The text below walks through data of patent US20040209778A1, “Lactone derivative, and plant growth regulator and rooting agent each containing the same as active ingredient” (priority 2001, published 2004).

In assay [1] the test system is adventitious roots of Bupleurum falcatum L. Nature of the assay: Rooting test using Bupleurum falcatum L. (1). The format is cell-based. The settings on record: for Weight of Freeze-dried Roots: day 24, 0.2 g roots planted. Here is the method:
In order to evaluate rooting activity, adventitious roots of Bupleurum falcatum L. were employed. The adventitious roots were obtained by growing the roots of aseptic seedlings by use of IBA. The developed roots were cultured at 23° C. in a B5 liquid medium containing 5 mg/L IBA (for 3 weeks) and in the corresponding B5 liquid medium with no IBA (for 6 weeks) in an alternate manner. The inoculation amount of the roots was 5 g/L, the incubation temperature was 23° C., and subculture was performed in the dark under shaking conditions of 100 rpm. In the rooting test, adventitious roots cultured in IBA-free medium were employed. B5 medium (30-mL) was placed in a 100 mL flask, followed by planting of the roots of Bupleurum falcatum L. (0.2 g) under aseptic conditions. The present lactone derivative, prepared in 10,000 ppm, was added to the flask so as to attain the concentration of 4 ppm or 8 ppm. A sample containing a 4 ppm (final concentration) IBA solution and a sample containing a 8 ppm (final concentration) IBA solution were employed as positive controls, and a corresponding IBA-free sample was employed as a control. Respective samples were cultured under shaking at 100 rpm at 23° C. in the dark, and on day 24, the extent of rooting was checked. The roots were freeze-dried and the weight thereof was measured.

Assay [2] shares this test system. In words: Rooting test using Bupleurum falcatum L. (2). The class given is cell-based. Conditions: for Number of Lateral Roots: per unit length (2 cm) of planted root, average of 3 measurements. The method, then: In order to evaluate rooting activity, adventitious roots of Bupleurum falcatum L. were employed. The adventitious roots were obtained by growing the roots of aseptic seedlings by use of IBA. The developed roots were cultured at 23° C. in a B5 liquid medium containing 5 mg/L IBA (for 3 weeks) and in the corresponding B5 liquid medium with no IBA (for 6 weeks) in an alternate manner. The inoculation amount of the roots was 5 g/L, the incubation temperature was 23° C., and subculture was performed in the dark under shaking conditions of 100 rpm.
In the rooting test, adventitious roots cultured in IBA-free medium were employed. B5 medium (30-mL) was placed in a 100 mL flask, followed by planting of the roots of Bupleurum falcatum L. (0.2 g) under aseptic conditions. The present lactone derivative, prepared in 10,000 ppm, was added to the flask so as to attain the concentration of 4 ppm or 8 ppm. A sample containing a 4 ppm (final concentration) IBA solution and a sample containing a 8 ppm (final concentration) IBA solution were employed as positive controls, and a corresponding IBA-free sample was employed as a control. Respective samples were cultured under shaking at 100 rpm at 23° C. in the dark, and on day 24, the extent of rooting was checked. The roots were freeze-dried and the weight thereof was measured.
The general procedure of the above-described rooting test (1) was followed, except that there were employed, as positive controls, samples containing the novel auxin metabolite (Fb) disclosed in Japanese Patent Application Laid-Open (kokai) No. 10-77268, at 4 ppm and 8 ppm (both final concentration).
The number of lateral roots was determined by averaging 3 measurements of the number of the lateral roots appearing per unit length (2 cm) of the planted root.

Consider `O=C1CCC(c2cc3ccccc3o2)O1` (stereo not drawn) [Compound 1, 5-(1-Benzofuran-2-yl)dihydro-2(3H)-furanone], for which the “Weight of Freeze-dried Roots” value in assay [1] (4 ppm final concentration) was found to be 0.37 g; in assay [1] (8 ppm final concentration), 0.35 g.

With `O=C1CCC(c2csc3ccccc23)O1` (stereo not drawn) [Compound 2, 5-(1-Benzothiophen-3-yl)dihydro-2(3H)-furanone], the rooting activity result is recorded as “rooting activity stronger than Fb” in assay [2] (4 ppm and 8 ppm, compared with Fb as positive control); “rooting activity stronger than IBA” in assay [1] (4 ppm and 8 ppm, compared with IBA as positive control). The “Weight of Freeze-dried Roots” value in assay [2] (4 ppm final concentration) was 0.31 g; in assay [2] (8 ppm final concentration) it was 0.45 g; in assay [1] (4 ppm final concentration) it was 0.36 g; in assay [1] (8 ppm final concentration) it was 0.41 g. In addition, the entries for the “Number of Lateral Roots” value in assay [2] (4 ppm final concentration) and in assay [2] (8 ppm final concentration) were 30.0 and 43.3, respectively.

Take `O=C(O)CCCc1c[nH]c2ccccc12` [IBA, indolebutyric acid, reference compound]: the figures for the “Weight of Freeze-dried Roots” value in assay [1] (4 ppm final concentration) and in assay [1] (8 ppm final concentration) were 0.31 g and 0.37 g, respectively.
